Reference: patent US20220096487A1 (priority 2019, published 2022)

Columns and labels:
[1] = system: phosphorylation of lamivudine, stavudine, and zidovudine; assay: In vitro phosphorylation of nucleoside analogues with ribavirin; format: cell-based
[2] = multi-drug regimen, HIV-1/HCV co-infected subjects
[3] = Drug interaction trials: effect of dolutegravir on pharmacokinetics of coadministered drugs (Table 8)
[4] = system: lamivudine-resistant HIV-1; assay: Cross-resistance against lamivudine-resistant HIV-1
[5] = Drug interaction trials: effect of coadministered drugs on pharmacokinetics of dolutegravir (Table 9); details: dolutegravir 50 mg single dose
[6] = Established and other potentially significant drug interactions for dolutegravir (Table 5); format: in vivo, human
Source text: These recommendations are based on either drug interaction trials or predicted interactions due to the expected magnitude of interaction and potential for serious adverse events or loss of efficacy [see Contraindications (4), Clinical Pharmacology (12.3)].

[7] = Ethinyl estradiol 0.035 mg, dolutegravir 50 mg twice daily
[8] = Daclatasvir 60 mg once daily, dolutegravir 50 mg once daily, No Effect = 1.00
[9] = Norelgestromin 0.25 mg, dolutegravir 50 mg twice daily
[10] = Ferrous fumarate 324 mg 2 h after dolutegravir
[11] = Ferrous fumarate 324 mg simultaneous administration (fasted)
[12] = Ferrous fumarate 324 mg simultaneous administration (fed)
[13] = Calcium carbonate 1,200 mg 2 h after dolutegravir
[14] = Calcium carbonate 1,200 mg simultaneous administration (fasted)
[15] = Calcium carbonate 1,200 mg simultaneous administration (fed)
[16] = Metformin 500 mg twice daily, dolutegravir 50 mg once daily
[17] = Metformin 500 mg twice daily, dolutegravir 50 mg twice daily
[18] = Grazoprevir 200 mg once daily, dolutegravir 50 mg single dose
[19] = metabolite GS-331007 after Sofosbuvir 400 mg once daily, dolutegravir 50 mg once daily
[20] = Sofosbuvir 400 mg once daily, dolutegravir 50 mg once daily

NC(=O)c1ncn([C@@H]2O[C@H](CO)[C@@H](O)[C@H]2O)n1 [ribavirin]
Effect on phosphorylation of lamivudine, stavudine, and zidovudine [1]: reduces phosphorylation | Pharmacokinetic or pharmacodynamic interaction with lamivudine, stavudine, or zidovudine [2]: no pharmacokinetic

Cc1ncc2n1-c1ccc(Cl)cc1C(c1ccccc1F)=NC2 [Midazolam]
Geometric Mean Ratio of Coadministered Drug AUC with/without Dolutegravir ([3]; Midazolam 3 mg, dolutegravir 25 mg once daily): 0.95

C#C[C@]1(O)CC[C@H]2[C@@H]3CCc4cc(O)ccc4[C@H]3CC[C@@]21C [Ethinyl estradiol]
Geometric Mean Ratio of Coadministered Drug AUC with/without Dolutegravir [3, 7]: 1.03 | Geometric Mean Ratio of Coadministered Drug Cmax with/without Dolutegravir [3, 7]: 0.99 | Geometric Mean Ratio of Coadministered Drug Cτ or C24 with/without Dolutegravir [3, 7]: 1.02

COC(=O)N[C@H](C(=O)N1CCC[C@H]1c1nc(-c2ccc(-c3ccc(-c4c[nH]c([C@@H]5CCCN5C(=O)[C@@H](NC(=O)OC)C(C)C)n4)cc3)cc2)c[nH]1)C(C)C [Daclatasvir]
Geometric Mean Ratio of Coadministered Drug AUC with/without Dolutegravir [3, 8]: 0.98 | Geometric Mean Ratio of Coadministered Drug Cmax with/without Dolutegravir [3, 8]: 1.03 | Geometric Mean Ratio of Coadministered Drug Cτ or C24 with/without Dolutegravir [3, 8]: 1.06

Cc1cn([C@H]2C[C@H](N=[N+]=[N-])[C@@H](CO)O2)c(=O)[nH]c1=O [Zidovudine]
Antiretroviral activity against lamivudine-resistant HIV-1 [4]: maintains its antiretroviral activities

C#C[C@]1(O)CC[C@H]2[C@@H]3CCC4=CC(=NO)CC[C@@H]4[C@H]3CC[C@@]21CC (mixture of isomers) [Norelgestromin]
Geometric Mean Ratio of Coadministered Drug AUC with/without Dolutegravir [3, 9]: 0.98 | Geometric Mean Ratio of Coadministered Drug Cmax with/without Dolutegravir [3, 9]: 0.89 | Geometric Mean Ratio of Coadministered Drug Cτ or C24 with/without Dolutegravir [3, 9]: 0.93

O=C([O-])/C=C/C(=O)[O-].[Fe+2] [Ferrous fumarate]
Geometric Mean Ratio of Dolutegravir AUC with/without Coadministered Drug [5, 10]: 0.95 | Geometric Mean Ratio of Dolutegravir Cmax with/without Coadministered Drug [5, 10]: 0.99 | Geometric Mean Ratio of Dolutegravir Cτ or C24 with/without Coadministered Drug [5, 10]: 0.92 | Geometric Mean Ratio of Dolutegravir AUC with/without Coadministered Drug [5, 11]: 0.46 | Geometric Mean Ratio of Dolutegravir Cmax with/without Coadministered Drug [5, 11]: 0.43 | Geometric Mean Ratio of Dolutegravir Cτ or C24 with/without Coadministered Drug [5, 11]: 0.44 | Geometric Mean Ratio of Dolutegravir AUC with/without Coadministered Drug [5, 12]: 0.98 | Geometric Mean Ratio of Dolutegravir Cmax with/without Coadministered Drug [5, 12]: 1.03 | Geometric Mean Ratio of Dolutegravir Cτ or C24 with/without Coadministered Drug [5, 12]: 1.00

O=C([O-])[O-].[Ca+2] [Calcium carbonate]
Geometric Mean Ratio of Dolutegravir AUC with/without Coadministered Drug [5, 13]: 0.94 | Geometric Mean Ratio of Dolutegravir Cmax with/without Coadministered Drug [5, 13]: 1.00 | Geometric Mean Ratio of Dolutegravir Cτ or C24 with/without Coadministered Drug [5, 13]: 0.90 | Geometric Mean Ratio of Dolutegravir AUC with/without Coadministered Drug [5, 14]: 0.61 | Geometric Mean Ratio of Dolutegravir Cmax with/without Coadministered Drug [5, 14]: 0.63 | Geometric Mean Ratio of Dolutegravir Cτ or C24 with/without Coadministered Drug [5, 14]: 0.61 | Geometric Mean Ratio of Dolutegravir AUC with/without Coadministered Drug [5, 15]: 1.09 | Geometric Mean Ratio of Dolutegravir Cmax with/without Coadministered Drug [5, 15]: 1.07 | Geometric Mean Ratio of Dolutegravir Cτ or C24 with/without Coadministered Drug [5, 15]: 1.08

C[C@@H]1CCO[C@H]2Cn3cc(C(=O)NCc4ccc(F)cc4F)c(=O)c([O-])c3C(=O)N12.[Na+] [Dolutegravir sodium, sodium (4R,12aS)-9-{[(2,4-difluorophenyl)methyl]carbamoyl}-4-methyl-6,8-dioxo-3,4,6,8,12,12a-hexahydro-2H-pyrido[1′, 2′:4,5]pyrazino[2,1-b][1,3]oxazin-7-olate]
Solubility in water (Solubility in water): slightly soluble

CN(C)C(=N)N=C(N)N [Metformin]
Effect on Concentration of metformin ([6]; concomitant dolutegravir): ↑Metformin | Geometric Mean Ratio of Coadministered Drug AUC with/without Dolutegravir [3, 16]: 1.79 | Geometric Mean Ratio of Coadministered Drug Cmax with/without Dolutegravir [3, 16]: 1.66 | Geometric Mean Ratio of Coadministered Drug AUC with/without Dolutegravir [3, 17]: 2.45 | Geometric Mean Ratio of Coadministered Drug Cmax with/without Dolutegravir [3, 17]: 2.11

C=C[C@@H]1C[C@]1(NC(=O)[C@@H]1C[C@@H]2CN1C(=O)[C@H](C(C)(C)C)NC(=O)O[C@@H]1C[C@H]1CCCCCc1nc3ccc(OC)cc3nc1O2)C(=O)NS(=O)(=O)C1CC1.O [Grazoprevir]
Geometric Mean Ratio of Coadministered Drug AUC with/without Dolutegravir [3, 18]: 0.81 | Geometric Mean Ratio of Coadministered Drug Cmax with/without Dolutegravir [3, 18]: 0.64 | Geometric Mean Ratio of Coadministered Drug Cτ or C24 with/without Dolutegravir [3, 18]: 0.86

C[C@@]1(F)[C@H](O)[C@@H](CO)O[C@H]1n1ccc(=O)[nH]c1=O [Metabolite (GS-331007)]
Geometric Mean Ratio of Coadministered Drug AUC with/without Dolutegravir [3, 19]: 0.99 | Geometric Mean Ratio of Coadministered Drug Cmax with/without Dolutegravir [3, 19]: 1.01 | Geometric Mean Ratio of Coadministered Drug Cτ or C24 with/without Dolutegravir [3, 19]: 0.99

CN(CCOc1ccc(NS(C)(=O)=O)cc1)CCc1ccc(NS(C)(=O)=O)cc1 [Dofetilide]
Effect on Concentration of dofetilide ([6]; in vivo): ↑Dofetilide

CC(C)OC(=O)[C@H](C)N[P@](=O)(OC[C@H]1O[C@@H](n2ccc(=O)[nH]c2=O)[C@](C)(F)[C@@H]1O)Oc1ccccc1 [Sofosbuvir]
Geometric Mean Ratio of Coadministered Drug AUC with/without Dolutegravir [3, 20]: 0.92 | Geometric Mean Ratio of Coadministered Drug Cmax with/without Dolutegravir [3, 20]: 0.88
